This is an account of results in patent publication US20170253607A1, “LONG-ACTING HIV PROTEASE INHIBITOR” (Shionogi & Co., Ltd., priority 2014, published 2017).

The target in the assay is HIV-1 PR (Human immunodeficiency virus type 1 group M subtype B, UniProt P04585). As to the kind of experiment: HIV-protease inhibitory activity assay (FRET peptide substrate). The format is biochemical. The settings on record: Test Example 1. The procedure, abridged: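 Compounds were preincubated with HIV-1 PR (0.83 ng) at room temperature in pH 4.8 NaAc buffer (0.5 M NaCl, EDTA, DTT, Tween 20), then HiLyte Fluor 488/QXL 520 FRET peptide (2 μmol/L final) was added for 60 min. Fluorescence was read at 485/535 nm, and IC50 was fitted by four-parameter logistic regression.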
As to `COc1ccc(S(=O)(=O)N(CC(C)C)CC(O)C(Cc2ccc(NCc3ccccc3-c3c(C(=O)O)c4ccccc4n3C)cc2)NC(=O)OC2COC3(C)OCCC23)cc1` (centres unmarked) [Compound I-411], the IC50 (usually the point on the concentration scale where inhibition reaches its midpoint) worked out at 1.3 nM.

On to `COc1ccc(S(=O)(=O)N(CC(C)C)CC(O)C(Cc2ccc(N(C)Cc3ccccc3-c3c(C(=O)O)c4ccccc4n3C)cc2)NC(=O)OC2COC3(C)OCCC23)cc1` (centres unmarked) [Compound I-412], for which the IC50 was found to be 1.51 nM.

The compound `COc1ccc(S(=O)(=O)N(CC(C)C)CC(O)C(Cc2ccc(NCc3ccc(C(=O)O)cc3-c3sc4c(c3C(=O)O)CC(C)(C)CC4)cc2)NC(=O)OC2COC3(C)OCCC23)cc1` (centres unmarked) [Compound I-413] yielded an IC50 of 1.84 nM.

`CNC(=O)c1ccc(CNc2ccc(CC(NC(=O)OC3COC4(C)OCCC34)C(O)CN(CC(C)C)S(=O)(=O)c3ccc(OC)cc3)cc2)c(-c2sc3c(c2C(=O)O)CC(C)(C)CC3)c1` (centres unmarked) [Compound I-416] had an IC50 of 1.63 nM.

The compound `COc1ccc(S(=O)(=O)N(CC(C)C)CC(O)C(Cc2ccc(NCc3ccc(C(=O)N(C)C)cc3-c3sc4c(c3C(=O)O)CC(C)(C)CC4)cc2)NC(=O)OC2COC3(C)OCCC23)cc1` (centres unmarked) [Compound I-417] returned an IC50 of 1.64 nM.

The compound `COc1ccc(S(=O)(=O)N(CC(C)C)CC(O)C(Cc2ccc(N(Cc3ccco3)Cc3ccccc3-c3sc4c(c3C(=O)O)CC(C)(C)CC4)cc2)NC(=O)OC2COC3(C)OCCC23)cc1` (centres unmarked) [Compound I-420] yielded an IC50 of 13.1 nM.

On to `COc1ccc(S(=O)(=O)N(CC(C)C)CC(O)C(Cc2ccc(N(CCc3ccccc3)Cc3ccccc3-c3sc4c(c3C(=O)O)CC(C)(C)CC4)cc2)NC(=O)OC2COC3(C)OCCC23)cc1` (centres unmarked) [Compound I-421], for which the IC50 is 14.7 nM.

`COc1ccc(S(=O)(=O)N(CC(C)C)CC(O)C(Cc2ccc(N(Cc3ccccc3-c3sc4c(c3C(=O)O)CC(C)(C)CC4)CC(C)C)cc2)NC(=O)OC2COC3(C)OCCC23)cc1` (centres unmarked) [Compound I-422] gave an IC50 of 8.58 nM.

`COc1ccc(S(=O)(=O)N(CC(C)C)CC(O)C(Cc2ccc(N(Cc3cccnc3)Cc3ccccc3-c3sc4c(c3C(=O)O)CC(C)(C)CC4)cc2)NC(=O)OC2COC3(C)OCCC23)cc1` (centres unmarked) [Compound I-423] returned an IC50 of 2.8 nM.

In turn, `COc1ccc(S(=O)(=O)N(CC(C)C)CC(O)C(Cc2ccc(N(Cc3ccoc3)Cc3ccccc3-c3sc4c(c3C(=O)O)CC(C)(C)CC4)cc2)NC(=O)OC2COC3(C)OCCC23)cc1` (centres unmarked) [Compound I-424] had an IC50 of 5.41 nM.

`COc1ccc(S(=O)(=O)N(CC(C)C)CC(O)C(Cc2ccc(N(Cc3ccncc3)Cc3ccccc3-c3sc4c(c3C(=O)O)CC(C)(C)CC4)cc2)NC(=O)OC2COC3(C)OCCC23)cc1` (centres unmarked) [Compound I-425] registered an IC50 of 2.65 nM.

In the case of `COc1ccc(S(=O)(=O)N(CC(C)C)CC(O)C(Cc2ccc(N(CCCc3ccccc3)Cc3ccccc3-c3sc4c(c3C(=O)O)CC(C)(C)CC4)cc2)NC(=O)OC2COC3(C)OCCC23)cc1` (centres unmarked) [Compound I-426], the IC50 is 8.1 nM.

The compound `COc1ccc(S(=O)(=O)N(CC(C)C)CC(O)C(Cc2ccc(N(CCCC(F)(F)F)Cc3ccccc3-c3sc4c(c3C(=O)O)CC(C)(C)CC4)cc2)NC(=O)OC2COC3(C)OCCC23)cc1` (centres unmarked) [Compound I-427] returned an IC50 of 10.4 nM.

The compound `CCCCCCN(Cc1ccccc1-c1sc2c(c1C(=O)O)CC(C)(C)CC2)c1ccc(CC(NC(=O)OC2COC3(C)OCCC23)C(O)CN(CC(C)C)S(=O)(=O)c2ccc(OC)cc2)cc1` (centres unmarked) [Compound I-428] returned an IC50 of 15.9 nM.

`COc1ccc(S(=O)(=O)N(CC(C)C)CC(O)C(Cc2ccc(N(CCN3CCOCC3)Cc3ccccc3-c3sc4c(c3C(=O)O)CC(C)(C)CC4)cc2)NC(=O)OC2COC3(C)OCCC23)cc1` (centres unmarked) [Compound I-429] yielded an IC50 of 2.21 nM.

With `COc1ccc(S(=O)(=O)N(CC(C)C)CC(O)C(Cc2ccc(N(CCC(F)(F)F)Cc3ccccc3-c3sc4c(c3C(=O)O)CC(C)(C)CC4)cc2)NC(=O)OC2COC3(C)OCCC23)cc1` (centres unmarked) [Compound I-430], the IC50 came to 17.5 nM.

`COc1ccc(S(=O)(=O)N(CC(C)C)CC(O)C(Cc2ccc(N(Cc3nccs3)Cc3ccccc3-c3sc4c(c3C(=O)O)CC(C)(C)CC4)cc2)NC(=O)OC2COC3(C)OCCC23)cc1` (centres unmarked) [Compound I-431]: half-maximal inhibition (IC50) required 3.72 nM.

For `COc1ccc(S(=O)(=O)N(CC(C)C)CC(O)C(Cc2ccc(N(CCCCc3ccccc3)Cc3ccccc3-c3sc4c(c3C(=O)O)CC(C)(C)CC4)cc2)NC(=O)OC2COC3(C)OCCC23)cc1` (centres unmarked) [Compound I-432], the IC50 is 8.42 nM.

`COc1ccc(S(=O)(=O)N(CC(C)C)CC(O)C(Cc2ccc(Nc3ncc(-c4sc5c(c4C(=O)O)CC(C)(C)CC5)cn3)cc2)NC(=O)OC2COC3(C)OCCC23)cc1` (centres unmarked) [Compound I-433] yielded an IC50 of 2.49 nM.

In turn, `COc1ccc(S(=O)(=O)N(CC(C)C)CC(O)C(Cc2ccc(NCc3ccc(C(=O)Nc4sc5c(c4C(=O)O)CC(C)(C)CC5)cc3)cc2)NC(=O)OC2COC3(C)OCCC23)cc1` (centres unmarked) [Compound I-437] gave an IC50 of 4.42 nM.

On to `COc1ccc(S(=O)(=O)N(CC(C)C)CC(O)C(Cc2ccc(NCc3ccc(C(=O)Nc4sc5c(c4C(=O)O)CC(C)(C)CC5)o3)cc2)NC(=O)OC2COC3(C)OCCC23)cc1` (centres unmarked) [Compound I-438], for which the IC50 turned out to be 2.55 nM.

`COc1ccc(S(=O)(=O)N(CC(C)C)CC(O)C(Cc2ccc(NCc3ccc(CCC(=O)Nc4sc5c(c4C(=O)O)CC(C)(C)CC5)cc3)cc2)NC(=O)OC2COC3(C)OCCC23)cc1` (centres unmarked) [Compound I-439]: inhibition was half-maximal at 3.45 nM (IC50).

In turn, `COc1ccc(S(=O)(=O)N(CC(C)C)CC(O)C(Cc2ccc(NCc3ccc(C(=O)Nc4sc5c(c4C(=O)O)CC(C)(C)CC5)s3)cc2)NC(=O)OC2COC3(C)OCCC23)cc1` (centres unmarked) [Compound I-441] registered an IC50 of 2.61 nM.

For the compound `COc1ccc(S(=O)(=O)N(CC(C)C)CC(O)C(Cc2ccc(NCc3cnn4ccc(C(=O)Nc5sc6c(c5C(=O)O)CC(C)(C)CC6)nc34)cc2)NC(=O)OC2COC3(C)OCCC23)cc1` (centres unmarked) [Compound I-442], the IC50 came to 2.95 nM.

On to `COc1ccc(S(=O)(=O)N(CC(C)C)CC(O)C(Cc2ccc(NCc3cncc(C(=O)Nc4sc5c(c4C(=O)O)CC(C)(C)CC5)c3)cc2)NC(=O)OC2COC3(C)OCCC23)cc1` (centres unmarked) [Compound I-443], for which the IC50 was 1.88 nM.

Regarding `COc1ccc(S(=O)(=O)N(CC(C)C)CC(O)C(Cc2ccc(NCc3ccc(C=CC(=O)Nc4sc5c(c4C(=O)O)CC(C)(C)CC5)cc3)cc2)NC(=O)OC2COC3(C)OCCC23)cc1` (centres unmarked) [Compound I-444], it took 5.1 nM to reach half-maximal inhibition (IC50).

Consider `COc1ccc(S(=O)(=O)N(CC(C)C)CC(O)C(Cc2ccc(NCc3cc(C(=O)Nc4sc5c(c4C(=O)O)CC(C)(C)CC5)n(C)c3)cc2)NC(=O)OC2COC3(C)OCCC23)cc1` (centres unmarked) [Compound I-445], for which inhibition was half-maximal at 2.78 nM (IC50).

`COc1ccc(S(=O)(=O)N(CC(C)C)CC(O)C(Cc2ccc(NCc3cc(C(F)(F)F)ccc3-n3nc(C(=O)O)c4c3CCC(C)(C)C4)cc2)NC(=O)OC2COC3(C)OCCC23)cc1` (centres unmarked) [Compound I-446] yielded an IC50 of 2.12 nM.

In the case of `COc1ccc(S(=O)(=O)N(CC(C)C)CC(O)C(Cc2ccc(N(C)Cc3cc(C(F)(F)F)ccc3-n3nc(C(=O)O)c4c3CCC(C)(C)C4)cc2)NC(=O)OC2COC3(C)OCCC23)cc1` (centres unmarked) [Compound I-447], half-maximal inhibition (IC50) required 2.37 nM.

The compound `COc1ccc(S(=O)(=O)N(CC(C)C)CC(O)C(Cc2ccc(N(C)Cc3cc(C#N)ccc3-c3sc4c(c3C(=O)O)CC(C)(C)CC4)cc2)NC(=O)OC2COC3(C)OCCC23)cc1` (centres unmarked) [Compound I-452] had an IC50 of 2.6 nM.

`COc1ccc(S(=O)(=O)N(CC(C)C)CC(O)C(Cc2ccc(N(Cc3ccccc3-c3sc4c(c3C(=O)O)CC(C)(C)CC4)CC3CCCC3)cc2)NC(=O)OC2COC3(C)OCCC23)cc1` (centres unmarked) [Compound I-456] yielded an IC50 of 13.6 nM.

`CCCCN(Cc1ccccc1-c1sc2c(c1C(=O)O)CC(C)(C)CC2)c1ccc(CC(NC(=O)OC2COC3(C)OCCC23)C(O)CN(CC(C)C)S(=O)(=O)c2ccc(OC)cc2)cc1` (centres unmarked) [Compound I-457] yielded an IC50 of 5.63 nM.

Take `CCCCCCCCCN(Cc1ccccc1-c1sc2c(c1C(=O)O)CC(C)(C)CC2)c1ccc(CC(NC(=O)OC2COC3(C)OCCC23)C(O)CN(CC(C)C)S(=O)(=O)c2ccc(OC)cc2)cc1` (centres unmarked) [Compound I-458]: the IC50 came out at 51 nM.

`COc1ccc(S(=O)(=O)N(CC(C)C)CC(O)C(Cc2ccc(N(CCC(C)(C)C)Cc3ccccc3-c3sc4c(c3C(=O)O)CC(C)(C)CC4)cc2)NC(=O)OC2COC3(C)OCCC23)cc1` (centres unmarked) [Compound I-459] had an IC50 of 18.4 nM.

`COc1ccc(S(=O)(=O)N(CC(C)C)CC(O)C(Cc2ccc(N(Cc3ccccc3-c3sc4c(c3C(=O)O)CC(C)(C)CC4)CC3CC3)cc2)NC(=O)OC2COC3(C)OCCC23)cc1` (centres unmarked) [Compound I-460] came in with an IC50 of 3.58 nM.

`COc1ccc(S(=O)(=O)N(CC(C)C)CC(O)C(Cc2ccc(N(CCC(C)C)Cc3ccccc3-c3sc4c(c3C(=O)O)CC(C)(C)CC4)cc2)NC(=O)OC2COC3(C)OCCC23)cc1` (centres unmarked) [Compound I-461] returned an IC50 of 7.09 nM.

Compound `CCCN(Cc1ccccc1-c1sc2c(c1C(=O)O)CC(C)(C)CC2)c1ccc(CC(NC(=O)OC2COC3(C)OCCC23)C(O)CN(CC(C)C)S(=O)(=O)c2ccc(OC)cc2)cc1` (centres unmarked) [Compound I-462] gave an IC50 of 3.33 nM.

On to `COc1ccc(S(=O)(=O)N(CC(C)C)CC(O)C(Cc2ccc(N(Cc3ccccc3-c3sc4c(c3C(=O)O)CC(C)(C)CC4)CC3CCC3)cc2)NC(=O)OC2COC3(C)OCCC23)cc1` (centres unmarked) [Compound I-463], for which half-maximal inhibition (IC50) required 5.13 nM.

As to `COc1ccc(S(=O)(=O)N(CC(C)C)CC(O)C(Cc2ccc(N(C)Cc3ccc(OC)c(-c4sc5c(c4C(=O)O)CC(C)(C)CC5)c3)cc2)NC(=O)OC2COC3(C)OCCC23)cc1` (centres unmarked) [Compound I-464], the IC50 is 2.52 nM.

Take `COc1ccc(S(=O)(=O)N(CC(C)C)CC(O)C(Cc2ccc(Nc3ccc(-c4sc5c(c4C(=O)O)CC(C)(C)CC5)cc3)cc2)NC(=O)OC2COC3(C)OCCC23)cc1` (centres unmarked) [Compound I-468]: the IC50 turned out to be 5.6 nM.

As for `COc1ccc(S(=O)(=O)N(CC(C)C)CC(O)C(Cc2ccc(N(C)c3ccc(-c4sc5c(c4C(=O)O)CC(C)(C)CC5)cc3)cc2)NC(=O)OC2COC3(C)OCCC23)cc1` (centres unmarked) [Compound I-469], the IC50 is 5.16 nM.
